The results in this text go back to US20230001007A1, “Glycan-Interacting Compounds and Methods of Use” (Seagen Inc., priority 2017, published 2023).

Assay [1] concerns OVCAR3 human ovarian cancer cells. Briefly: OVCAR3 cell line-derived subcutaneous xenograft. Conditions: 20 mg/kg intraperitoneally once per week for three weeks. The format is in vivo, Athymic Nude mouse. As to the method: An Athymic Nude mouse subcutaneous xenograft mouse model was generated with OVCAR3 human ovarian cancer cells. Animals were treated with humanized anti-STn ADCs (1 mg/kg, 2.5 mg/kg, 5 mg/kg), an isotype ADC (1 mg/kg, 5 mg/kg), Paclitaxel (20 mg/kg) or vehicle alone. ADCs were administrated intravenously once per week for four weeks. Paclitaxel was administrated intraperitoneally once per week for three weeks. […] At the end of the study, tumor tissues were collected and analyzed using immunohistochemistry for expression of STn.

The test system of assay [2] is Primary patient CRC samples. The assay can be described thus: STn expression in primary patient CRC samples by flow cytometry. Conditions: % of viable CD45−/CD34− population. The format is cell-based. The text has this: Primary patient CRC samples were probed by flow cytometry with hSIA101 and two commercial antibodies B72.3 and CC49. All 10 samples tested were STn positive. In the table, % STn is expressed as % of viable CD45−/CD34− population. STn expression was often more robustly identified with hSIA101 than the commercial antibodies.
A general note: In flow cytometry, cells or beads pass a laser one at a time.

On to `CC(=O)O[C@H]1C(=O)[C@@]2(C)[C@H]([C@H](OC(=O)c3ccccc3)[C@]3(O)C[C@H](OC(=O)[C@H](O)[C@@H](NC(=O)c4ccccc4)c4ccccc4)C(C)=C1C3(C)C)[C@]1(OC(C)=O)CO[C@@H]1C[C@@H]2O` [Paclitaxel], for which the Mean tumor volume was 161.2 mm^3 in assay [1] (Day 1); 210.0 mm^3 in assay [1] (Day 4); 370.0 mm^3 in assay [1] (Day 9); 482.3 mm^3 in assay [1] (Day 12); 620.4 mm^3 in assay [1] (Day 15); 767.4 mm^3 in assay [1] (Day 18). The Mean tumor volume in assay [1] (Day 23) is recorded as 971.6 mm^3; in assay [1] (Day 26), 1133.0 mm^3; in assay [1] (Day 30) it was 1277.8 mm^3; in assay [1] (Day 31), 1385.2 mm^3.

B1: B72.3: commercial anti-STn antibody (antibody, chains of the INN, looked up, V domains shown)
VH: QVQLQQSDAELVKPGASVKISCKASGYTFTDHAIHWAKQKPEQGLEWIGYISPGNDDIKYNEKFKGKATLTADKSSSTAYMQLNSLTSEDSAVYFCKRSYYGHWGQGTTLTVSS
VL: DIQMTQSPASLSVSVGETVTITCRASENIYSNLAWYQQKQGKSPQLLVYAATNLADGVPSRFSGSGSGTQYSLKINSLQSEDFGSYYCQHFWGTPYTFGGGTRLEIK
Turning to B1, the “% STn+” value came to 18.9% in assay [2] (Sample 160093-2, Colon); 5.8% in assay [2] (Sample 160101-2, Colon); 14.7% in assay [2] (Sample 160102-2, Colon); 46.6% in assay [2] (Sample 160104-2, Colon Met to Liver); 13% in assay [2] (Sample 160115-2, Colon); 14.4% in assay [2] (Sample 160127-2, Colon). Moreover, the “% STn+” value in assay [2] (Sample 160149-1, Colon) is 10.5%; in assay [2] (Sample 160151-1, Colon), 6.8%; in assay [2] (Sample 169068-1, Colon), 7.4%; in assay [2] (Sample 1601666, Colon), 17.3%.
